The source of these data is patent US20220370416A1, “COMPOUNDS AND METHODS FOR TARGETED DEGRADATION OF KRAS” (Arvinas Operations, Inc., priority 2020, published 2022).

The structures appear in SMILES notation. A value given as a limit tells only on which side of the number the result lay.

Assay [1] addresses T1, HiBit-KRAS^G12C (Homo sapiens, UniProt P01116, G12C). The assay can be described thus: HiBit degradation assay in MiaPaCa-2 HiBit-KRas^G12C cells. The format is cell-based. The conditions noted are these: 0.5% DMSO, 24 hours; for Dmax: maximum degradation; for DC50: read-out: KRas^G12C-HiBiT (MiaPaCa; 0.5% DMSO) IC50. The method in brief: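 DC50 and Dmax come from 4-parameter fits of DMSO-normalized HiBit luminescence after 24 hours' exposure at 37° C to 10 μM–20 nM compound in 0.1% or 0.5% DMSO. Cells: MiaPaCa-2 carrying one endogenously HiBit-tagged KRAS^G12C allele; concentrations causing ≥50% […] viability loss (alamar blue) excluded.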
Background: HiBiT is a short tag that completes a luciferase, so light tracks the accessible tagged protein.

In assay [2] the target is T1, HiBit-KRAS^G12C. The assay can be described thus: HiBit degradation assay in SW1573 HiBit-KRas^G12C cells. The format is cell-based. Set-up: expressed in transfected cells; host or cells: SW1573 (clone E6), modified pcDNA3.1 vector, TK promoter. The following applies: 0.5% DMSO, 24 hours; for DC50: read-out: KRas^G12C-HiBiT (SW1573; 0.5% DMSO) IC50***. The method in brief: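 HiBit-KRAS G12C degradation was measured after a 24 h compound exposure (titrated 10 μM–20 nM) in engineered SW1573 cells. Lytic HiBit luminescence, expressed relative to DMSO controls, yielded DC50 and Dmax from 4-parameter fits. Concentrations causing ≥50% loss in alamar blue viability were omitted as cytotoxic.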

Setting [3] is: MIA PaCa-2, MiaPaCa-2 HiBit-KRas^G12C cells, read-out: KRas^G12C-HiBiT (MiaPaCa; 0.5% DMSO) DMax.
Where [4] appears, read: MiaPaCa-2 HiBit-KRas^G12C cells.
The mark [5] stands for this setting: SW1573, SW1573 HiBit-KRas^G12C, read-out: KRas^G12C-HiBiT (SW1573; 0.5% DMSO) Dmax**.
[6] abbreviates: MIA PaCa-2, read-out: KRas^G12C-HiBiT (MiaPaCa; 0.5% DMSO) DMax, MiaPaCa-2 HiBit-KRas^G12C cells.
Where [7] appears, read: SW1573, read-out: KRas^G12C-HiBiT (SW1573; 0.5% DMSO) Dmax**, SW1573 HiBit-KRas^G12C.

T1 sequence (P01116 1-186 isoform P01116-2 G12C limits assumed): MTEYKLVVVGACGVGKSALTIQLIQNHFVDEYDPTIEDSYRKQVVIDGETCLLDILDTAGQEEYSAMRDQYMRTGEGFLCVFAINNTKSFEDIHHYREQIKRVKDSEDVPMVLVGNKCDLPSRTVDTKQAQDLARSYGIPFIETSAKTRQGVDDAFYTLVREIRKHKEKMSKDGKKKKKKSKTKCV

Regarding `C=CC(=O)N1CCN(c2nc(OCCN3CC[C@H](COCC(=O)N[C@H](C(=O)N4C[C@H](O)C[C@H]4C(=O)N[C@@H](C)c4ccc(-c5scnc5C)cc4)C(C)(C)C)C3)nc3c(F)c(-c4cc(O)cc5ccccc45)c(Cl)cc23)C[C@@H]1CC#N` [Compound 142, (2S,4R)-1-[(2S)-2-(2-{[(3S)-1-[2-({6-chloro-4-[(3S)-3-(cyanomethyl)-4-(prop-2-enoyl)piperazin-1-yl]-8-fluoro-7-(3-hydroxynaphthalen-1-yl)quinazolin-2-yl}oxy)ethyl]pyrrolidin-3-yl]methoxy}acetamido)-3,3-dimethylbutanoyl]-4-hydroxy-N-[(1S)-1-[4-(4-methyl-1,3-thiazol-5-yl)phenyl]ethyl]pyrrolidine-2-carboxamide], the Dmax at HiBit-KRAS^G12C [1] (setting [3]) and at HiBit-KRAS^G12C [2] (setting [5]) was 35 to 70% in each case. In addition, the figures for the DC50 on HiBit-KRAS^G12C [1] (setting [4]) and on HiBit-KRAS^G12C [2] (SW1573 HiBit-KRas^G12C) were greater than 1000 nM and 100 to 1000 nM, respectively.

For `C=CC(=O)N1CCN(c2nc(OCCN3CCC(CN(C)c4cc([C@H](C(=O)N5C[C@H](O)C[C@H]5C(=O)N[C@@H](C)c5ccc(-c6scnc6C)cc5)C(C)C)on4)CC3)nc3c(F)c(-c4cc(O)cc5ccccc45)c(Cl)cc23)C[C@@H]1CC#N` [Compound 143, (2S,4R)-1-[(2R)-2-{3-[({1-[2-({6-chloro-4-[(3S)-3-(cyanomethyl)-4-(prop-2-enoyl)piperazin-1-yl]-8-fluoro-7-(3-hydroxynaphthalen-1-yl)quinazolin-2-yl}oxy)ethyl]piperidin-4-yl}methyl)(methyl)amino]-1,2-oxazol-5-yl}-3-methylbutanoyl]-4-hydroxy-N-[(1S)-1-[4-(4-methyl-1,3-thiazol-5-yl)phenyl]ethyl]pyrrolidine-2-carboxamide], the Dmax at HiBit-KRAS^G12C [1] (setting [3]) and at HiBit-KRAS^G12C [2] (setting [5]) was greater than 70% throughout. The DC50 at HiBit-KRAS^G12C [1] (setting [4]) and on HiBit-KRAS^G12C [2] (SW1573 HiBit-KRas^G12C) was 100 to 1000 nM each time.

Consider `C=CC(=O)N1CCN(c2nc(OCCN3CCC(CN(C)c4cc([C@@H](C(=O)N5C[C@H](O)C[C@H]5C(=O)N[C@@H](C)c5ccc(-c6scnc6C)cc5)C(C)C)on4)CC3)nc3c(F)c(-c4cc(O)cc5ccccc45)c(Cl)cc23)C[C@@H]1CC#N` [Compound 144, (2S,4R)-1-[(2S)-2-{3-[({1-[2-({6-chloro-4-[(3S)-3-(cyanomethyl)-4-(prop-2-enoyl)piperazin-1-yl]-8-fluoro-7-(3-hydroxynaphthalen-1-yl)quinazolin-2-yl}oxy)ethyl]piperidin-4-yl}methyl)(methyl)amino]-1,2-oxazol-5-yl}-3-methylbutanoyl]-4-hydroxy-N-[(1S)-1-[4-(4-methyl-1,3-thiazol-5-yl)phenyl]ethyl]pyrrolidine-2-carboxamide], for which the figures for the DC50 at HiBit-KRAS^G12C [1] (setting [4]) and at HiBit-KRAS^G12C [2] (SW1573 HiBit-KRas^G12C) were greater than 1000 nM and 100 to 1000 nM, respectively. Also, on HiBit-KRAS^G12C [2] (setting [5]), the Dmax was less than 35%.

As to `C=CC(=O)N1CCN(c2nc(OCCN3CCC4(CC3)CN(CC(=O)N[C@H](C(=O)N3C[C@H](O)C[C@H]3C(=O)N[C@@H](C)c3ccc(-c5scnc5C)cc3)C(C)(C)C)C4)nc3c(F)c(-c4cc(O)cc5ccccc45)c(Cl)cc23)C[C@@H]1CC#N` [Compound 145, (2S,4R)-1-[(2S)-2-(2-{7-[2-({6-chloro-4-[(3S)-3-(cyanomethyl)-4-(prop-2-enoyl)piperazin-1-yl)-8-fluoro-7-(3-hydroxynaphthalen-1-yl)quinazolin-2-yl}oxy)ethyl]-2,7-diazaspiro[3.5]nonan-2-yl}acetamido)-3,3-dimethylbutanoyl]-4-hydroxy-N-[(1S)-1-[4-(4-methyl-1,3-thiazol-5-yl)phenyl]ethyl]pyrrolidine-2-carboxamide], the Dmax was 35 to 70% at HiBit-KRAS^G12C [1] (setting [6]) and greater than 70% at HiBit-KRAS^G12C [2] (setting [7]). For the same compound, the DC50 at HiBit-KRAS^G12C [1] (setting [4]) and on HiBit-KRAS^G12C [2] (SW1573 HiBit-KRas^G12C) was 100 to 1000 nM each time.

With `C=CC(=O)N1CCN(c2nc(OCCN3CCC(CN(C)CC(=O)N[C@H](C(=O)N4C[C@H](O)C[C@H]4C(=O)N[C@@H](C)c4ccc(-c5scnc5C)cc4)C(C)(C)C)CC3)nc3c(F)c(-c4cc(O)cc5ccccc45)c(Cl)cc23)C[C@@H]1CC#N` [Compound 148, (2S,4R)-1-[(2S)-2-{2-[({1-[2-({6-chloro-4-[(3S)-3-(cyanomethyl)-4-(prop-2-enoyl)piperazin-1-yl]-8-fluoro-7-(3-hydroxynaphthalen-1-yl)quinazolin-2-yl}oxy)ethyl]piperidin-4-yl}methyl)(methyl)amino]acetamido}-3,3-dimethylbutanoyl]-4-hydroxy-N-[(1S)-1-[4-(4-methyl-1,3-thiazol-5-yl)phenyl]ethyl]pyrrolidine-2-carboxamide], the Dmax on HiBit-KRAS^G12C [1] (setting [6]) and on HiBit-KRAS^G12C [2] (setting [7]) was 35 to 70% each time. Moreover, the DC50 at HiBit-KRAS^G12C [1] (setting [4]) and on HiBit-KRAS^G12C [2] (SW1573 HiBit-KRas^G12C) was 100 to 1000 nM each time.

As to `C=CC(=O)N1CCN(c2nc(OCCN3CCC(C)(COCC(=O)N[C@H](C(=O)N4C[C@H](O)C[C@H]4C(=O)N[C@@H](C)c4ccc(-c5scnc5C)cc4)C(C)(C)C)CC3)nc3c(F)c(-c4cc(O)cc5ccccc45)c(Cl)cc23)C[C@@H]1CC#N` [Compound 149, (2S,4R)-1-[(2S)-2-[2-({1-[2-({6-chloro-4-[(3S)-3-(cyanomethyl)-4-(prop-2-enoyl)piperazin-1-yl]-8-fluoro-7-(3-hydroxynaphthalen-1-yl)quinazolin-2-yl}oxy)ethyl]-4-methylpiperidin-4-yl}methoxy)acetamido]-3,3-dimethylbutanoyl]-4-hydroxy-N-[(1S)-1-[4-(4-methyl-1,3-thiazol-5-yl)phenyl]ethyl]pyrrolidine-2-carboxamide], the Dmax at HiBit-KRAS^G12C [1] (setting [3]) and on HiBit-KRAS^G12C [2] (setting [5]) was greater than 70% each time. For the same compound, the DC50 at HiBit-KRAS^G12C [1] (setting [4]) and on HiBit-KRAS^G12C [2] (SW1573 HiBit-KRas^G12C) was 100 to 1000 nM throughout.

`C=CC(=O)N1CCN(c2nc(OCCN3CCC(F)(COCC(=O)N[C@H](C(=O)N4C[C@H](O)C[C@H]4C(=O)N[C@@H](C)c4ccc(-c5scnc5C)cc4)C(C)(C)C)CC3)nc3c(F)c(-c4cc(O)cc5ccccc45)c(Cl)cc23)C[C@@H]1CC#N` [Compound 150, (2S,4R)-1-[(2S)-2-[2-({1-[2-({6-chloro-4-[(3S)-3-(cyanomethyl)-4-(prop-2-enoyl)piperazin-1-yl]-8-fluoro-7-(3-hydroxynaphthalen-1-yl)quinazolin-2-yl}oxy)ethyl]-4-fluoropiperidin-4-yl}methoxy)acctamido]-3,3-dimethylbutanoyl]-4-hydroxy-N-[(1S)-1-[4-(4-methyl-1,3-thiazol-5-yl)phenyl]ethyl]pyrrolidine-2-carboxamide]: the Dmax at HiBit-KRAS^G12C [1] (setting [3]) and at HiBit-KRAS^G12C [2] (setting [5]) was greater than 70% in each case. Moreover, the DC50 at HiBit-KRAS^G12C [1] (setting [4]) was greater than 1000 nM; on HiBit-KRAS^G12C [2] (SW1573 HiBit-KRas^G12C) it was 100 to 1000 nM.

On to `C=CC(=O)N1CCN(c2nc(O[C@H](C)CN3CCC(COCC(=O)N[C@H](C(=O)N4C[C@H](O)C[C@H]4C(=O)N[C@@H](C)c4ccc(-c5scnc5C)cc4)C(C)(C)C)CC3)nc3c(F)c(-c4cc(O)cc5ccccc45)c(Cl)cc23)C[C@@H]1CC#N` [Compound 152, (2S,4R)-1-[(2S)-2-[2-({1-[(2R)-2-({6-chloro-4-[(3S)-3-(cyanomethyl)-4-(prop-2-enoyl)piperazin-1-yl]-8-fluoro-7-(3-hydroxynaphthalen-1-yl)quinazolin-2-yl}oxy)propyl]piperidin-4-yl}methoxy)acetamido]-3,3-dimethylbutanoyl]-4-hydroxy-N-[(1S)-1-[4-(4-methyl-1,3-thiazol-5-yl)phenyl]ethyl]pyrrolidine-2-carboxamide], for which the Dmax at HiBit-KRAS^G12C [1] (setting [3]) is 35 to 70%; on HiBit-KRAS^G12C [2] (setting [5]) it was greater than 70%. Also, the DC50 on HiBit-KRAS^G12C [1] (setting [4]) and on HiBit-KRAS^G12C [2] (SW1573 HiBit-KRas^G12C) was 100 to 1000 nM each time.

Regarding `C=CC(=O)N1CCN(c2nc(O[C@H](C)CN3CCC(COc4cc([C@H](C(=O)N5C[C@H](O)C[C@H]5C(=O)N[C@@H](C)c5ccc(-c6scnc6C)cc5)C(C)C)on4)CC3)nc3c(F)c(-c4cc(O)cc5ccccc45)c(Cl)cc23)C[C@@H]1CC#N` [Compound 153, (2S,4R)-1-[(2R)-2-[3-({1-[(2R)-2-({6-chloro-4-[(3S)-3-(cyanomethyl)-4-(prop-2-enoyl)piperazin-1-yl]-8-fluoro-7-(3-hydroxynaphthalen-1-yl)quinazolin-2-yl}oxy)propyl]piperidin-4-yl}methoxy)-1,2-oxazol-5-yl]-3-methylbutanoyl]-4-hydroxy-N-[(1S)-1-[4-(4-methyl-1,3-thiazol-5-yl)phenyl]ethyl]pyrrolidine-2-carboxamide], the Dmax on HiBit-KRAS^G12C [1] (setting [3]) and on HiBit-KRAS^G12C [2] (setting [5]) was greater than 70% each time. Moreover, the DC50 on HiBit-KRAS^G12C [1] (setting [4]) and on HiBit-KRAS^G12C [2] (SW1573 HiBit-KRas^G12C) was 100 to 1000 nM each time.
